# Source: publication PMC4740242 (Cell reports, 2016)
# pIC50: −log10 of the molar value.
# Key:
# T674I PDGFRα = T674I PDGFRα (Homo sapiens, UniProt P16234, T674I); assay: HotSpot radiometric kinase assay, recombinant T674I PDGFRα; type: biochemical; conditions: for inhibition of T674I PDGFRα: 500 nM screening concentration, 10 μM ATP
# [1] = system: Ba/F3 cells expressing T674I FIP1L1-PDGFRα; assay: cells; conditions: Mus musculus, BaF3, 24 h, read-out: IC50 cell growth/viability
# LRRK2 mutants = assay: HotSpot kinase assay, LRRK2 mutants; type: biochemical; conditions: single-dose screen verified in dose-response
# BTK = BTK (Homo sapiens, UniProt Q06187); assay: Wild-type kinase panel, BTK; type: biochemical; conditions: single-dose screen
# Sequence of BTK (Q06187 whole entry): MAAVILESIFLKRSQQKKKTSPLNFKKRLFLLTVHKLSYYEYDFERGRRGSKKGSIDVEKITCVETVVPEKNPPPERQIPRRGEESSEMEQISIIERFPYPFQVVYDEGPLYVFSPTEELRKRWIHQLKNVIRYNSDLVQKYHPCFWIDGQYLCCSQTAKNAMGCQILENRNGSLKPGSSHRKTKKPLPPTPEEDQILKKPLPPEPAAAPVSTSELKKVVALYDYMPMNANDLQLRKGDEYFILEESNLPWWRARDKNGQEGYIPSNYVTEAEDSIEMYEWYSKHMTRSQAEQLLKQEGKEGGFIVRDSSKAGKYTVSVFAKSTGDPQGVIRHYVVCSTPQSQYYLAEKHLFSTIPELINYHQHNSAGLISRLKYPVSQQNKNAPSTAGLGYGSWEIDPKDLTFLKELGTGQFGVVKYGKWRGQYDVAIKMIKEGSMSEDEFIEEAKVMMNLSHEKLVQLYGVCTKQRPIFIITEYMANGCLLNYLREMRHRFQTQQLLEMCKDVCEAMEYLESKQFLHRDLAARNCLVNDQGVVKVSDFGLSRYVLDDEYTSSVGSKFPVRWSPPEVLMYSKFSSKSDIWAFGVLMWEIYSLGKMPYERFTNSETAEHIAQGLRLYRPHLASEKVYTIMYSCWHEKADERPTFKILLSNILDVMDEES
# RIPK2 = RIPK2 (Homo sapiens, UniProt O43353); assay: Wild-type kinase panel, RIPK2; type: biochemical; conditions: single-dose screen
# JAK3 = JAK3 (Homo sapiens, UniProt P52333); assay: Wild-type kinase panel, JAK3; type: biochemical; conditions: single-dose screen
# TXK = TXK (Homo sapiens, UniProt P42681); assay: Wild-type kinase panel, TXK; type: biochemical; conditions: single-dose screen
# [2] = system: T790M EGFR mutants (T790M, T790M/L858R, d746-750/T790M); conditions: dose-response
# CLK3 = CLK3 (Homo sapiens, UniProt P49761); assay: Wild-type kinase panel, CLK3; type: biochemical; conditions: single-dose screen
# BLK = BLK (Homo sapiens, UniProt P51451); assay: Wild-type kinase panel, BLK; type: biochemical; conditions: single-dose screen
# ERBB4 = ERBB4 (Homo sapiens, UniProt Q15303); assay: Wild-type kinase panel, ERBB4; type: biochemical; conditions: single-dose screen
# Sequence of ERBB4 (Q15303 26-1308): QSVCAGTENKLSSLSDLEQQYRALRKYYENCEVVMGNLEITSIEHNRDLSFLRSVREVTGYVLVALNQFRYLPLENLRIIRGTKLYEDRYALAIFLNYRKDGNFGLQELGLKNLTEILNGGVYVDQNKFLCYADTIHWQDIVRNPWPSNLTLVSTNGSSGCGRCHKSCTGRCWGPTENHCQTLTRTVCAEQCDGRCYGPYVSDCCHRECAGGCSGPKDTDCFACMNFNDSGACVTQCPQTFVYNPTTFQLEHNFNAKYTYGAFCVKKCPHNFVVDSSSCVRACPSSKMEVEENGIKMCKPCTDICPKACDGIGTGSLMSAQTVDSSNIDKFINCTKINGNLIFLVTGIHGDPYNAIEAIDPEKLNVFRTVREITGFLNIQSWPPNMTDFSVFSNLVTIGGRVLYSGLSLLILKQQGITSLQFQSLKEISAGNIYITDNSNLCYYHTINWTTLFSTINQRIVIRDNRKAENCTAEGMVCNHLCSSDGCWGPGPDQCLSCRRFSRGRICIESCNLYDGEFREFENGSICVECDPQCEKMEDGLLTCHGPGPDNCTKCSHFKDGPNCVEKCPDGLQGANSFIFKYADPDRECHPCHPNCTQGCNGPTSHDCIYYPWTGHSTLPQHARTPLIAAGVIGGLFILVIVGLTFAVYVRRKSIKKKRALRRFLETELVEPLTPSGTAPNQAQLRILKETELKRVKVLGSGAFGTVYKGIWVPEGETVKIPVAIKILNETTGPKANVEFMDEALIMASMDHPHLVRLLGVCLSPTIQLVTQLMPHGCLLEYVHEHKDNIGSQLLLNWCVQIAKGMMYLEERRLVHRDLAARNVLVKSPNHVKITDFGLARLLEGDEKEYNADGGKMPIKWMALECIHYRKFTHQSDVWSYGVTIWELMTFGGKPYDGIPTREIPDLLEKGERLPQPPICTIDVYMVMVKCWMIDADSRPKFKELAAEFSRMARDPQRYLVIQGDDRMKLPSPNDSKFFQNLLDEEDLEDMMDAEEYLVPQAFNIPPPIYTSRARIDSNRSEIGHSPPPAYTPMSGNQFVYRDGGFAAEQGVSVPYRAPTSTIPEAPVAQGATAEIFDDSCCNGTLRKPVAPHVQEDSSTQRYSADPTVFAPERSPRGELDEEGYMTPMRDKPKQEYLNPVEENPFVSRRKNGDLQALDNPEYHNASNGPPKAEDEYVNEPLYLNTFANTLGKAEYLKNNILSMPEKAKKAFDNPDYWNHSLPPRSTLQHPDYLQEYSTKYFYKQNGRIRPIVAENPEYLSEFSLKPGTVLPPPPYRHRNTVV
# L1196M ALK = L1196M ALK (Homo sapiens, UniProt Q9UM73, L1196M); assay: HotSpot kinase assay, L1196M ALK; type: biochemical; conditions: single-dose screen verified in dose-response
# [3] = system: mutants of the RET tyrosine kinase; assay: HotSpot kinase assay, RET mutants; type: biochemical; conditions: single-dose screen verified in dose-response
# [4] = system: Ba/F3 cells expressing WT FIP1L1-PDGFRα; assay: cells; conditions: Mus musculus, BaF3, 24 h, read-out: IC50 cell growth/viability
# ERBB2 = ERBB2 (Homo sapiens, UniProt P04626); assay: Wild-type kinase panel, ERBB2; type: biochemical; conditions: single-dose screen
# Sequence of ERBB2 (P04626 23-1255): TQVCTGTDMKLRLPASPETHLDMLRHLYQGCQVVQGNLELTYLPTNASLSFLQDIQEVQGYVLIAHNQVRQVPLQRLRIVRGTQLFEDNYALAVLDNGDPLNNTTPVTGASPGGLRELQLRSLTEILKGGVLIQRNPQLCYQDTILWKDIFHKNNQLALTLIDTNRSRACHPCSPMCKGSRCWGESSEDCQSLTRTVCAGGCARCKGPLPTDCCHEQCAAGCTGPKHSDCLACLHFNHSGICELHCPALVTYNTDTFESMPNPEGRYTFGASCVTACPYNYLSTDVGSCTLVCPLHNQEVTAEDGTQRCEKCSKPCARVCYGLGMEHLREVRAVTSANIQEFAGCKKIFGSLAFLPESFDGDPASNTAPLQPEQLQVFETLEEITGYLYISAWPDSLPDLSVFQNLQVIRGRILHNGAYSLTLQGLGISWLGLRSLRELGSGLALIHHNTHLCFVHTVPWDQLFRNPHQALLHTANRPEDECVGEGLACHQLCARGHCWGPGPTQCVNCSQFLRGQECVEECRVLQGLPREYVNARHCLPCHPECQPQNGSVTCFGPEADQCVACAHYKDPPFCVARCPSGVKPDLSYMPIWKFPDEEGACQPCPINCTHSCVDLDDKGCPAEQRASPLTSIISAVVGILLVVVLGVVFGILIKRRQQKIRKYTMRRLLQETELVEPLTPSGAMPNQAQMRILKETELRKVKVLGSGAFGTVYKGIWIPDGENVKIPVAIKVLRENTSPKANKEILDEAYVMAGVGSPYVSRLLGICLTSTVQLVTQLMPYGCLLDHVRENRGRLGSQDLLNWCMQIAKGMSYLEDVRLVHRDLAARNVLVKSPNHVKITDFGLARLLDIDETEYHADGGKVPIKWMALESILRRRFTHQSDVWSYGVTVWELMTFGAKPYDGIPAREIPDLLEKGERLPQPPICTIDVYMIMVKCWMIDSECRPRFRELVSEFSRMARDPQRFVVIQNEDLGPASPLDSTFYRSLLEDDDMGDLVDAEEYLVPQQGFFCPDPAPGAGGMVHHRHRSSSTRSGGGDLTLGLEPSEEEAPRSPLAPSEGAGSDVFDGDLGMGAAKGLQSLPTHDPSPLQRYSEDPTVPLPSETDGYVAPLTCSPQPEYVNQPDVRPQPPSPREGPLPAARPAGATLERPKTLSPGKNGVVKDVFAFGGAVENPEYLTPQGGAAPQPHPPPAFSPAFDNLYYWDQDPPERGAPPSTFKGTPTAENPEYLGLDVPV
# EPHA6 = EPHA6 (Homo sapiens, UniProt Q9UF33); assay: Wild-type kinase panel, EPHA6; type: biochemical; conditions: single-dose screen
# C-SRC = C-SRC (Homo sapiens, UniProt P12931); assay: Wild-type kinase panel, C-SRC; type: biochemical; conditions: single-dose screen
# MNK1 = MNK1 (Homo sapiens, UniProt Q9BUB5); assay: Wild-type kinase panel, MNK1; type: biochemical; conditions: single-dose screen
# HCK = HCK (Homo sapiens, UniProt P08631); assay: Wild-type kinase panel, HCK; type: biochemical; conditions: single-dose screen
# LCK = LCK (Homo sapiens, UniProt P06239); assay: Wild-type kinase panel, LCK; type: biochemical; conditions: single-dose screen
# Sequence of LCK (P06239 whole entry): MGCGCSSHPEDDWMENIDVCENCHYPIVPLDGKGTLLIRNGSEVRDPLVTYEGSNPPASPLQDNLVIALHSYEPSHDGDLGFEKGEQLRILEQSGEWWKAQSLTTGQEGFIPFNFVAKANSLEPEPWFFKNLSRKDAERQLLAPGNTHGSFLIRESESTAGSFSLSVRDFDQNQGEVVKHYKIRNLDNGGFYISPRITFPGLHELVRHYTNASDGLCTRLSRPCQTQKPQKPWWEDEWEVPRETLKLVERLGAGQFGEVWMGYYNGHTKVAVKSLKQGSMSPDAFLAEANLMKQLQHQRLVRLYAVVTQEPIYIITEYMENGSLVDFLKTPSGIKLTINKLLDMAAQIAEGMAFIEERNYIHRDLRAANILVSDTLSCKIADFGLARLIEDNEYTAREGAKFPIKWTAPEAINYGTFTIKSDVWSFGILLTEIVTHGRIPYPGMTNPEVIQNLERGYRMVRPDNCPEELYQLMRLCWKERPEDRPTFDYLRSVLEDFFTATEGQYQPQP
# EPHB4 = EPHB4 (Homo sapiens, UniProt P54760); assay: Wild-type kinase panel, EPHB4; type: biochemical; conditions: single-dose screen
# FGR = FGR (Homo sapiens, UniProt P09769); assay: Wild-type kinase panel, FGR; type: biochemical; conditions: single-dose screen
# Sequence of T674I PDGFRα (P16234 24-1089 T674I): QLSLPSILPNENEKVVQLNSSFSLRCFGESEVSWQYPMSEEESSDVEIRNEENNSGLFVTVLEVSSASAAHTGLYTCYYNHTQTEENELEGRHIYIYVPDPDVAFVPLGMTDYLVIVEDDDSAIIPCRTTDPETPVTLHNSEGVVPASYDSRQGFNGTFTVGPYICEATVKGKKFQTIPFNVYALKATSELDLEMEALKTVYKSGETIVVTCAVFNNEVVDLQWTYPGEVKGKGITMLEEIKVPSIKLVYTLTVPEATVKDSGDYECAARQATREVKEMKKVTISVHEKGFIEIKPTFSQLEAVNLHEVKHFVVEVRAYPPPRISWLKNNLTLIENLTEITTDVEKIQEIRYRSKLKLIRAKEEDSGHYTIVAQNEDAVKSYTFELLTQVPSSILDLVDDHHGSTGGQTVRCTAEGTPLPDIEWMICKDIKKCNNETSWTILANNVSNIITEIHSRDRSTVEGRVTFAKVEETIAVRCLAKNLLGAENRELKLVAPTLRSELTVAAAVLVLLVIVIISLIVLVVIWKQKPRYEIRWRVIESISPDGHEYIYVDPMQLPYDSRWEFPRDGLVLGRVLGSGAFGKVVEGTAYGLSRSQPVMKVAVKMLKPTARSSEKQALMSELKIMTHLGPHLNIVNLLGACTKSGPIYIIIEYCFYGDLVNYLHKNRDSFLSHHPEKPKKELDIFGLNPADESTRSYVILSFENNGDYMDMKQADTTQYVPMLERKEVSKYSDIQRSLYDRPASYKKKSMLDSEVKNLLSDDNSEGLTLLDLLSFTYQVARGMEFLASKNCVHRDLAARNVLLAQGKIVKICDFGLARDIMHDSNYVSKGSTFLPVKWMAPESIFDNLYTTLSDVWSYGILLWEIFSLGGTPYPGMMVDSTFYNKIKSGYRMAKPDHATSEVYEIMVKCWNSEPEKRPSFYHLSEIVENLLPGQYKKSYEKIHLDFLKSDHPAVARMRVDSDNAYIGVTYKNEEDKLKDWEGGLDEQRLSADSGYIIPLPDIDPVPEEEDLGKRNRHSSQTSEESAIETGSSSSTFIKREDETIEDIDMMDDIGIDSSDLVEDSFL
compound,measurement,setting,value
COc1cc2ncnc(Nc3ccc(Oc4ccccc4)cc3)c2cc1OC [compound 3],potency relative to compound 4 against T674I PDGFRα,T674I PDGFRα; IC50 comparison,several-fold more potent
CNC(=O)c1cc(Oc2ccc(NC(=O)Nc3ccc(Cl)c(C(F)(F)F)c3)cc2)ccn1 [sorafenib],pIC50,[1],6.84
same,inhibition of T674I PDGFRα,T674I PDGFRα,> 90%
COc1cc2ncnc(Nc3cccc(Br)c3)c2cc1OC [compound 6],fold more potent than compound 7 against T674I PDGFRα,T674I PDGFRα; IC50 comparison,approximately 1.5 fold
Jak3 Inhibitor II,inhibition of LRRK2 mutants (in words),LRRK2 mutants,inhibit
COc1cc2ncnc(Nc3cccc(O)c3)c2cc1OC [compound 1],fold more potent than compound 2 against T674I PDGFRα,"T674I PDGFRα; IC50 comparison, meta vs para substituent",2 fold
EGFR/ErbB2/ErbB4 Inhibitor,inhibition of BTK,BTK,more than 50%
same,inhibition of RIPK2,RIPK2,more than 50%
same,inhibition of JAK3,JAK3,more than 50%
same,inhibition of TXK,TXK,more than 50%
same,apparent IC50 against all T790M EGFR kinases (in words),[2],low nanomolar
same,inhibition of CLK3,CLK3,more than 50%
same,inhibition of BLK,BLK,more than 50%
same,inhibition of ERBB4,ERBB4,more than 50%
COc1cc2ncnc(Nc3cccc(Cl)c3)c2cc1OC [compound 5],fold more potent than compound 7 against T674I PDGFRα,T674I PDGFRα; IC50 comparison,approximately 1.5 fold
bosutinib isomer,inhibition of crizotinib-resistant L1196M ALK (in words),L1196M ALK,inhibitor
COc1cc2ncnc(Nc3ccc(O)cc3)c2cc1OC [compound 2],fold less potent than compound 3 against T674I PDGFRα,T674I PDGFRα; IC50 comparison,~ 2 fold
Cc1cc(Nc2cc(N3CCN(C)CC3)nc(Sc3ccc(NC(=O)C4CC4)cc3)n2)[nH]n1 [tozasertib],inhibition of RET mutants (in words),[3],can inhibit
C#Cc1cccc(Nc2ncnc3cc(OCCOC)c(OCCOC)cc23)c1 [erlotinib],pIC50,[1],5.79
same,pIC50,[4],4.84
same,inhibition of T674I PDGFRα,T674I PDGFRα,> 90%
Flt-3 Inhibitor,inhibition of LRRK2 mutants (in words),LRRK2 mutants,inhibit
CCN(CC)CCNC(=O)c1c(C)[nH]c(/C=C2\C(=O)Nc3ccc(F)cc32)c1C [sunitinib],pIC50,[1],7.34
same,inhibition of T674I PDGFRα,T674I PDGFRα,> 90%
CN(C)C/C=C/C(=O)Nc1cc2c(Nc3ccc(F)c(Cl)c3)ncnc2cc1O[C@H]1CCOC1 [afatinib],inhibition of ERBB2,ERBB2,more than 50%
same,inhibition of BTK,BTK,more than 50%
same,inhibition of EPHA6,EPHA6,more than 50%
same,inhibition of C-SRC,C-SRC,more than 50%
same,inhibition of MNK1,MNK1,more than 50%
same,inhibition of HCK,HCK,more than 50%
same,inhibition of LCK,LCK,more than 50%
same,inhibition of EPHB4,EPHB4,more than 50%
same,inhibition of FGR,FGR,more than 50%
same,inhibition of ERBB4,ERBB4,more than 50%
Cc1ccc(Nc2nccc(N(C)c3ccc4c(C)n(C)nc4c3)n2)cc1S(N)(=O)=O [pazopanib],pIC50,[1],5.50
same,inhibition of T674I PDGFRα,T674I PDGFRα,> 90%
